This passage reports Km, kcat and kcat/Km results from ChEMBL document CHEMBL1275486, “Kinetic characterization of VIM-7, a divergent member of the VIM metallo-beta-lactamase family” (Antimicrob Agents Chemother, 2008).

Assay [1] concerns Escherichia coli. The experiment in a line: Activity of Escherichia coli beta-lactamase VIM-1 by spectrophotometry.
Assay [2] relates to Escherichia coli. Description: Ratio of Kcat to Km for Escherichia coli beta-lactamase VIM-1 by spectrophotometry.

Turning to `C[C@]1(Cn2ccnn2)[C@H](C(=O)O)N2C(=O)C[C@H]2S1(=O)=O`, in the assay on Escherichia coli [1], the Km came out at 340 µM and the kcat turned out to be 5.3 s⁻¹. For the same compound, in the assay on Escherichia coli [2], the kcat/Km came to 16000 M⁻¹ s⁻¹.

For `CO/N=C(\C(=O)N[C@@H]1C(=O)N2C(C(=O)O)=C(COC(N)=O)CS[C@H]12)c1ccco1`, in the assay on Escherichia coli [1], the Km was 42 µM and the turnover number (kcat) came out at 325 s⁻¹. Besides, the kcat/Km in the assay on Escherichia coli [2] worked out at 7.7e+06 M⁻¹ s⁻¹.

Turning to `CC(=O)OCC1=C(C(=O)O)N2C(=O)[C@@H](NC(=O)Cc3cccs3)[C@H]2SC1`, in the assay with Escherichia coli [1], the Michaelis constant (Km) came to 55 µM and the kcat came to 280 s⁻¹. The kcat/Km in the assay with Escherichia coli [2] is 5.1e+06 M⁻¹ s⁻¹.

Turning to `CO[C@@]1(NC(=O)C(C(=O)O)c2ccc(O)cc2)C(=O)N2C(C(=O)O)=C(CSc3nnnn3C)CO[C@@H]21` (some centres undefined), in the assay with Escherichia coli [1], the Km came to 450 µM and the catalytic constant (kcat) came out at 43 s⁻¹. For the same compound, the kcat/Km with Escherichia coli [2] worked out at 96000 M⁻¹ s⁻¹.

Consider `O=C(Cc1cccs1)N[C@@H]1C(=O)N2C(C(=O)O)=C(/C=C/c3ccc([N+](=O)[O-])cc3[N+](=O)[O-])CS[C@H]12`, for which, in the assay on Escherichia coli [1], the Michaelis-Menten constant (Km) worked out at 17 µM and the kcat was determined as 95 s⁻¹. Moreover, in the assay on Escherichia coli [2], the specificity constant (kcat/Km) was 5.6e+06 M⁻¹ s⁻¹.

On to `C[C@@H](O)[C@H]1C(=O)N2C(C(=O)O)=C(S[C@@H]3CN[C@H](C(=O)N(C)C)C3)[C@H](C)[C@H]12`, for which, in the assay with Escherichia coli [1], the Km was 50 µM and the catalytic constant (kcat) came out at 13 s⁻¹. In the assay on Escherichia coli [2], the kcat/Km worked out at 260000 M⁻¹ s⁻¹.

As to `CCN1CCN(C(=O)N[C@@H](C(=O)N[C@@H]2C(=O)N3[C@@H]2SC(C)(C)[C@@H]3C(=O)O)c2ccccc2)C(=O)C1=O`, in the assay on Escherichia coli [1], the Michaelis-Menten constant (Km) was 3500 µM and the kcat is 1900 s⁻¹. Further, the catalytic efficiency (kcat/Km) with Escherichia coli [2] was found to be 540000 M⁻¹ s⁻¹.

On to `CO[C@@]1(NC(=O)Cc2cccs2)C(=O)N2C(C(=O)O)=C(COC(N)=O)CS[C@@H]21`, for which, in the assay on Escherichia coli [1], the Km worked out at 130 µM and the kcat was found to be 26 s⁻¹. In addition, in the assay with Escherichia coli [2], the kcat/Km is 200000 M⁻¹ s⁻¹.

`CC1(C)S[C@@H]2[C@H](NC(=O)Cc3ccccc3)C(=O)N2[C@H]1C(=O)O`: the Michaelis-Menten constant (Km) in the assay on Escherichia coli [1] is 840 µM. Further, the kcat/Km in the assay on Escherichia coli [2] was 36000 M⁻¹ s⁻¹.

As for `CC1(C)S[C@@H]2[C@H](NC(=O)[C@H](NC(=O)N3CCNC3=O)c3ccccc3)C(=O)N2[C@H]1C(=O)O`, in the assay with Escherichia coli [1], the Km is 120 µM and the kcat stood at 1500 s⁻¹. The kcat/Km with Escherichia coli [2] was found to be 1.25e+07 M⁻¹ s⁻¹.
